# Reference: article PMC10662218 (RSC Advances, 2023)
# Target: Human insulin (monomeric insulin) (Homo sapiens, UniProt P01308)
# Test: intrinsic Tyr fluorescence quenching
# Assay type: binding
# Conditions: insulin 25 μM, compound 2-24 μM, double-log
# Sequence of Human insulin (monomeric insulin) (P01308 25-54): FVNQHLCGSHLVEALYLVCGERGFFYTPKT
# Sequence of Human insulin (monomeric insulin) (P01308 90-110): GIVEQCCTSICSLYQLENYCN
row,SMILES,"K b, 10^4 (M^-1) / 293 K"
1,"COc1cccc(/C=N/C(C)(C)C)c1O [3a, (E)-2-((tert-butylimino)methyl)-6-methoxyphenol]",2.18 × 10^4 M^-1
2,"COc1cccc(/C=N/C(CO)(CO)CO)c1O [3b, (E)-2-((2-hydroxy-3-methoxybenzylidene)amino)-2-(hydroxymethyl)propane-1,3-diol]",17.09 × 10^4 M^-1
